Like-named read-outs stand apart in the source and are kept apart here.
Tests used:
[1] = test system: SJCRH30
[2] = test system: T47D
[3] = test system: DMS-114
[4] = test system: 184B5
[5] = test system: HEK293
[6] = test system: BT549
[7] = test system: NL20; parameters: key to the marks not given beside the values
[8] = test system: CHO-K1
[9] = test system: A549
[10] = test system: MCF7; parameters: key to the marks not given beside the values
[11] = test system: MDCK; parameters: key to the marks not given beside the values
[12] = test system: rat brain synaptosomes; experiment: Receptor binding assays
[13] = SJCRH30 cells, 400 nM, 1 hour at 37° C., 20× objective, Example 15C

`COc1cccc2c1C(=O)c1c(O)c3c(c(O)c1C2=O)C[C@@](O)(C(C)=O)C[C@@H]3O[C@H]1C[C@H](N)[C@H](O)[C@H](C)O1` [Daunorubicin] was tested, and the level of fluorescence [1, 13] was “−”.
`Cc1cc(C)n2c1C=C1C=CC(CCC(=O)NN)=[N+]1[B-]2(F)F` [BODIPY ®, 4,4-difluoro-5,7-dimethyl-4-bora-3a,4a-diaza-s-indacene-3-propionic acid, hydrazide] was tested, and the level of fluorescence [2] was “+”, the level of fluorescence [3] was “−” and the level of fluorescence [4] was “+”. For the same compound, the level of fluorescence [5] was “−”, the level of fluorescence [6] was “+” and the level of fluorescence [7] was “++”. For the same compound, the level of fluorescence [8] was “−”, the level of fluorescence [1] was “+” and the level of fluorescence [9] was “−”. The level of fluorescence [10] was “++” and the level of fluorescence [11] was “++”.
For `C=C/C=C\CC[C@H]1O[C@H]2CC[C@@]3(C)O[C@H]4[C@@H](O)C[C@@]5(C)O[C@@H](CC/C=C(C)/C(C)=C/C=O)[C@@H](C)C[C@H]5O[C@@H]4C[C@@H]3O[C@@H]2CC[C@@]1(C)O` [brevenal], the “affinity (binding to rat brain synaptosomes)” value ([12]; parent compound, first value printed for brevenal) was 400 to 800 nM.
`C=C(C=O)C[C@@H]1C[C@H](O)[C@]2(C)O[C@@H]3C[C@@H]4O[C@@H]5C[C@]6(C)O[C@]7(C)CC[C@@H]8O[C@@H]9C[C@]%10(C)O[C@@H]%11C(C)=CC(=O)O[C@H]%11C[C@H]%10O[C@H]9C[C@@H](C)[C@H]8O[C@H]7C[C@H]6O[C@H]5C/C=C\[C@H]4O[C@H]3C[C@H]2O1` [brevetoxin] was tested, and the “affinity (binding to rat brain synaptosomes)” value [12] was 2-10 nm.
With `CN(C)c1ccc2c(-c3cc(C(=O)[O-])ccc3C(=O)O)c3ccc(=[N+](C)C)cc-3oc2c1` [Example 6-TAMRA, 6-carboxytetramethylrhodamine] the level of fluorescence [1, 13] was “−”.

Reference: patent US20160128321A1, “Ladder-Frame Polyether Conjugates” (priority 2010, published 2016)
